Values of other authors, collected in patent publication US20010036664A1, “L-leucyl-L-leucine methyl ester treatment of donor lypmhocyte infusions in bone marrow transplant patients” (priority 2000, published 2001).

Tests used:
GVHD = conditions: ex vivo treatment of bone marrow grafts; multiple murine models
GVHD-inducing T cells = conditions: stem cell toxicity occurs at this concentration

COC(=O)[C@H](CC(C)C)NC(=O)[C@@H](N)CC(C)C [LLME, L-leucyl-L-leucine methyl ester]
prevention of GVHD (GVHD): completely prevent GVHD
concentrations necessary to purge GVHD-inducing T cells (GVHD-inducing T cells): 500 µM
